Assay results reported in US20110294799A1, “Organic Compounds” (NOVARTIS AG, priority 2007, published 2011).

Key:
[1] = biological target: T1, GABA-A alpha2 receptor (alpha 2 subunit together with a beta and a gamma subunit) (Homo sapiens, UniProt P18507+P47869); assay: GABA-A receptor modulation, voltage-sensitive dye fluorescence in transfected eukaryotic cell line (alpha2); format: cell-based; details: compounds at 3 μM, sub-maximal concentration of GABA (EC20); for activation at 3 µM: read-out: alpha2 % mod (percentage of increase of the fluorescent signal compared to signal without the agent)
T1 construct: expressed in transfected cells
T1 sequence (P47869 29-451): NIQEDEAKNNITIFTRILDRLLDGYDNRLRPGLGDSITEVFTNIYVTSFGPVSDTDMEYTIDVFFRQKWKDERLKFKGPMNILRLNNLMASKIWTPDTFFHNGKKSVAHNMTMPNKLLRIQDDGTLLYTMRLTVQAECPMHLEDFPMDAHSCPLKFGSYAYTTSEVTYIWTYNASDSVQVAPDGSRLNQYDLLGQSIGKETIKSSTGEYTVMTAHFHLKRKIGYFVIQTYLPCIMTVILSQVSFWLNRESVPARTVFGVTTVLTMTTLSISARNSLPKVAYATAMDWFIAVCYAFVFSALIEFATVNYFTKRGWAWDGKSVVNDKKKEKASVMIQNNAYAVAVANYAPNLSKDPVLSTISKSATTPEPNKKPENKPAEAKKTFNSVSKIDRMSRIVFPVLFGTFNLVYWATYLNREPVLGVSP
T1 sequence (P47870 25-512 partner limits assumed): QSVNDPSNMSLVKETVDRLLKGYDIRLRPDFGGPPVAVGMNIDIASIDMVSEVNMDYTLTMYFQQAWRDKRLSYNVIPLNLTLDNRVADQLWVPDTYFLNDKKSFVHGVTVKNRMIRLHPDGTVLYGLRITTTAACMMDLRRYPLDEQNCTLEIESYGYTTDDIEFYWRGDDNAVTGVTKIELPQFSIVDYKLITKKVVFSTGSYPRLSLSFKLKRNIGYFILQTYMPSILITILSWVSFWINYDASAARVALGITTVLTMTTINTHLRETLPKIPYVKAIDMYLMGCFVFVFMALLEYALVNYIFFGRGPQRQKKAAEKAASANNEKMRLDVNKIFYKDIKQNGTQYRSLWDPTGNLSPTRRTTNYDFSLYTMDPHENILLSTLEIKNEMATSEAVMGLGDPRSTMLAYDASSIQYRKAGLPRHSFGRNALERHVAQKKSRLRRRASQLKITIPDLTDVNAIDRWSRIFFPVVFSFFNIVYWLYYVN
T1 sequence (P18507 40-467 limits assumed): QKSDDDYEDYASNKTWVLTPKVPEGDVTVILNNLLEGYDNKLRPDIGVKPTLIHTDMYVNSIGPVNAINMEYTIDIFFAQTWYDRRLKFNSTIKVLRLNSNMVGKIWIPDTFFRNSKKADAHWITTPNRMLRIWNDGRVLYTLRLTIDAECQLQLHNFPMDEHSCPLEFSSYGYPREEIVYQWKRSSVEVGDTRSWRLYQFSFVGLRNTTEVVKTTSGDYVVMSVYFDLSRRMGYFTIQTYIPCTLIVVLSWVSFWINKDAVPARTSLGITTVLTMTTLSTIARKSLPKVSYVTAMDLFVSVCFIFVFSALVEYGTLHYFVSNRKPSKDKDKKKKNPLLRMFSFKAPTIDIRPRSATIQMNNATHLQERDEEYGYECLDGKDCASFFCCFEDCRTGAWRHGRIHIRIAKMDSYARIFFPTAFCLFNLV
Excerpt: (§1) GABA-A receptor modulators show in functional assays a positive modulation of GABA-induced signals. This modulation can be determined in vitro, e.g., at recombinant GABA-A receptors expressed in a mammalian cell line, e.g. by measurement of GABA-A receptor induced changes of the trans-membrane voltage, when using a voltage-sensitive dye and a fluorescence detection system (Adkins, C. E., Pillai, G. V., Kerby, J., Bonnert, T. P., Haldon, C., Mckernan, R. M., Gonzalez, J. E., Oades, K., Whiting, P. J. & Simpson, P. B. [2001]. alpha4beta3delta GABA-A receptors characterized by fluorescence resonance energy transfer-derived measurements of membrane potential. J. Biol. Chem., 276, 38934-38939). In this assay, a modulator compound is pre-applied at different concentrations ranging from 0.1 nM to 10 μM to cells expressing GABA-A receptors and loaded with the voltage-sensitive dye, before, or at the same time as, a sub-maximal concentration of GABA (in the range of from 0.1 to 10 μM) is applied to the cells. The fluorescent signal is correlated with the degree of GABA-A receptor channel opening. This allows the quantification of effects induced by the modulator in a functional manner. By expression of different GABA-A receptor subunit combinations, the differential efficacy of a modulator at different GABA-A receptor variants can be tested. Other functional assays include the electrophysiological recording of Xenopus oocytes or mammalian cells expressing respective receptor variants. In addition, ion flux detectors can be used to functionally study GABA-A receptors in heterologous expression systems. The affinity of a compound to the GABA-A receptor can be measured in radioligand binding experiments using reference ligands containing a radioactive element, e.g., tritiated flumazenil, and intact cells or membrane preparations of cells expressing GABA-A receptors.
(§2) Activity and selectivity of a GABA-A receptor modulator according to the invention can, e.g., be determined in vitro as follows: A transfected eukaryotic cell line expressing the alpha1, alpha2 or alpha3 subunit of the GABA-A receptor together with a beta and a gamma subunit of the GABA-A receptor is incubated with a voltage-sensitive dye, and the effects of an agonist (typically GABA) or modulator addition are recorded in a fluorimetric plate reader. The opening of the GABA-A receptor channel and the subsequent flux of anions through it changes the trans-membrane voltage of the transfected cells, leading to a change in the fluorescent signal of the voltage-sensitive dye. In the presence of the agent of the invention, a sub-maximal concentration of GABA (e.g. an EC20 or an EC50) added to transfected cells expressing the alpha1, alpha2 or alpha3 subunit of the GABA-A receptor will elicit an at least 50%, preferably an at least 80%, ideally an at least 100%, increase, of the fluorescent signal, compared to the fluorescent signal obtained without the agent of the invention. In this assay, agents of the invention modulate the GABA-induced response at concentration from about 0.1 to about 10′000 nM.

[2] = biological target: T2, GABA-A alpha1 receptor (alpha 1 subunit together with a beta and a gamma subunit) (Homo sapiens, UniProt P14867+P18507); assay: GABA-A receptor modulation, voltage-sensitive dye fluorescence in transfected eukaryotic cell line (alpha1); format: cell-based; details: compounds at 3 μM, sub-maximal concentration of GABA (EC20); for activation at 3 µM: read-out: alpha1 % mod (percentage of increase of the fluorescent signal compared to signal without the agent)
T2 construct: expressed in transfected cells
T2 sequence (P14867 28-456): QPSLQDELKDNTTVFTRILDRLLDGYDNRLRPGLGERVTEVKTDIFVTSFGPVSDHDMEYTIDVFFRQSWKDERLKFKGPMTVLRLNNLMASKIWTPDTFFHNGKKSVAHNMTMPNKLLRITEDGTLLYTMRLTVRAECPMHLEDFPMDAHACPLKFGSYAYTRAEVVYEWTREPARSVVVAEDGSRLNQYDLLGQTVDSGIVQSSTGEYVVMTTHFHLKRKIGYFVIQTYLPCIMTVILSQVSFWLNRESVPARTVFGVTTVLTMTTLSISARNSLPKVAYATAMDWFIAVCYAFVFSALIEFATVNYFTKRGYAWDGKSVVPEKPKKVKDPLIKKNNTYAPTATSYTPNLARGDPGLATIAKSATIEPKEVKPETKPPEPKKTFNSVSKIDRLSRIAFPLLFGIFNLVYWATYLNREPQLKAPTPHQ
T2 sequence (P47870 25-512 partner limits assumed): T1 sequence (P47870 25-512 partner limits assumed)
T2 sequence (P18507 40-467 limits assumed): T1 sequence (P18507 40-467 limits assumed)
Excerpt: as §1, §2

| Structure (SMILES) | activation at 3 µM [1] [%] | activation at 3 µM [2] [%] | alpha2 % mod (percentage of increase of the fluorescent signal compared to signal without the agent) [1] [% mod] | alpha1 % mod (percentage of increase of the fluorescent signal compared to signal without the agent) [2] [% mod] |
| --- | --- | --- | --- | --- |
| COc1ccc(-n2nc3c(cnc4ccccc43)c2OCc2ccncc2)cc1 [Example 60, 2-(4-methoxyphenyl)-3-(pyridin-4-ylmethoxy)-2H-pyrazolo[4,3-c]quinoline] | 177 | 64 |  |  |
| COc1ccc(-n2nc3c(cnc4ccccc43)c2OCc2ccccc2Cl)cc1 [Example 61, 3-[(2-chlorobenzyl)oxy]-2-(4-methoxyphenyl)-2H-pyrazolo[4,3-c]quinoline] | 145 | 52 |  |  |
| COc1ccc(-n2nc3c(cnc4ccccc43)c2OCc2ccc(Cl)nc2)cc1 [Example 62, 3-[(6-chloropyridin-3-yl)methoxy]-2-(4-methoxypheny1)-2H-pyrazolo[4,3-c]quinoline] |  |  | 141 | 55 |
| Fc1ccc(-n2nc3c(cnc4ccccc43)c2OCc2ccccc2Cl)cc1 [Example 63, 3-[(2-chlorobenzyl)oxy]-2-(4-fluorophenyl)-2H-pyrazolo[4,3-c]quinoline] | 60 | 9 |  |  |
| COc1ccc(-n2nc3c(cnc4c(F)c(F)c(F)cc43)c2SCc2ccccc2)cc1 [Example 70, 3-(benzylsulfanyl)-6,7,8-trifluoro-2-(4-methoxyphenyl)-2H-pyrazolo[4,3-c]quinoline] | 349 | 188 |  |  |
| CC(C)(C)n1nc2c(cnc3ccccc32)c1OCc1ccccc1Br [Example 81, 3-[(2-bromobenzyl)oxy]-2-tert-butyl-2H-pyrazolo[4,3-c]quinoline] | 205 | 109 |  |  |
| COc1ccc(-n2nc3c(cnc4ccccc43)c2OCc2ccc(Cl)cc2)cc1 [Example 89, 3-(4-Chloro-benzyloxy)-2-(4-methoxy-phenyl)-2H-pyrazolo[4,3-c]quinoline] | 69 | 23 |  |  |
| Clc1ccc(-n2nc3c(cnc4ccccc43)c2OCC2CC2)cc1 [Example 90, 2-(4-Chloro-phenyl)-3-cyclopropylmethoxy-2H-pyrazolo[4,3-c]quinoline] | 164 | 60 |  |  |
| Clc1ccc(-n2nc3c(cnc4ccccc43)c2OCC2CCCC2)cc1 [Example 91, 2-(4-Chloro-phenyl)-3-cyclopentylmethoxy-2H-pyrazolo[4,3-c]quinoline] | 84 | 55 |  |  |
| Clc1ccc(-n2nc3c(cnc4ccccc43)c2OC2CCCC2)cc1 [Example 92, 2-(4-Chloro-phenyl)-3-cyclopentyloxy-2H-pyrazolo[4,3-c]quinoline] | 57 | 27 |  |  |
| Clc1ccc(-n2nc3c(cnc4ccccc43)c2OCCN2CCOCC2)cc1 [Example 93, 2-(4-Chloro-phenyl)-3-(2-morpholin-4-yl-ethoxy)-2H-pyrazolo[4,3-c]quinoline] | 81 | 17 |  |  |
| Clc1ccc(-n2nc3c(cnc4ccc(-n5ccnc5)cc43)c2OCC2CC2)cc1 [Example 96, 2-(4-Chloro-phenyl)-3-cyclopropylmethoxy-8-imidazol-1-yl-2H-pyrazolo[4,3-c]quinoline] | 162 | 119 |  |  |
| Clc1ccc(-n2nc3c(cnc4ccccc43)c2OCC2CCO2)cc1 (stereo not shown) [Example 98, 2-(4-Chloro-phenyl)-3-(oxetan-2-ylmethoxy)-2H-pyrazolo[4,3-c]quinoline] | 97 | 53 |  |  |
| CN1CCN(CCOc2c3cnc4ccccc4c3nn2-c2ccc(Cl)cc2)CC1 [Example 99] |  |  | 121 | 58 |
| Clc1ccc(-n2nc3c(cnc4ccc(-n5ccnc5)cc43)c2OCC2CCCC2)cc1 [Example 113, 2-(4-Chloro-phenyl)-3-cyclopentylmethoxy-8-imidazol-1-yl-2H-pyrazolo[4,3-c]quinoline] | 88 | 63 |  |  |
| Clc1ccc(-n2nc3c(cnc4ccc(-n5ccnc5)cc43)c2OCCc2ccccc2Cl)cc1 [Example 114, 2-(4-Chloro-phenyl)-3-[2-(2-chloro-phenyl)-ethoxy]-8-imidazol-1-yl-2H-pyrazolo[4,3-c]quinoline] | 129 | 108 |  |  |
| Clc1ccc(-n2nc3c(cnc4ccc(Br)cc43)c2OCc2ccccc2Cl)cc1 [Example 115, 8-Bromo-3-(2-chloro-benzyloxy)-2-(4-chloro-phenyl)-2H-pyrazolo[4,3-c]quinoline] | 66 | 26 |  |  |
